Assay results as given in patent US6414170B1, “Preparation of cationic surfactants containing ester group in molecules” (LG Chemical Ltd., priority 1998, dated 2002).

Experiment: OECD 301D Closed Bottle Test (evaluation of ultimate biodegradability)
Settings: 60% or more biodegraded two weeks from start of decomposition, test period of 28 days
Description: Measuring of the ultimate biodegradability was made by taking an OECD 301D Closed Bottle Test (a test for determining whether or not 60% or more can be biodegraded two weeks from the time when the sample begins decomposing during the test period of 28 days) on cationic surfactants prepared in EXAMPLES 1 to 8, dimethyl dialkyl ammonium chloride, and imidazoline ester. The ultimate biodegradabilities of cationic surfactants of EXAMPLE 1, 2, 8, and conventional cationic surfactants were less than 60%, thereby not being readily biodegradable.

## dimethyl dialkyl ammonium chloride
  Readily biodegradable: No
